Results from ChEMBL document CHEMBL2331239, “Inhibiting NF-κB-inducing kinase (NIK): discovery, structure-based design, synthesis, structure-activity relationship, and co-crystal structures” (Bioorg Med Chem Lett, 2013).

Experiments:
[1] = target: T1, Mitogen-activated protein kinase kinase kinase 14 (Homo sapiens, UniProt Q99558); assay: Inhibition of NIK (unknown origin) autophosphorylation after 1 hr by chemiluminescent assay
[2] = target: T1, Mitogen-activated protein kinase kinase kinase 14; assay: Inhibition of NIK in human HT-29 cells assessed as LTalpha/beta2-induced p100 processing to NFkappaB2 preincubated for 30 mins before LTalpha/beta2 stimulation measured after 5 hrs; format: cell-based

T1 sequence (Q99558 whole entry): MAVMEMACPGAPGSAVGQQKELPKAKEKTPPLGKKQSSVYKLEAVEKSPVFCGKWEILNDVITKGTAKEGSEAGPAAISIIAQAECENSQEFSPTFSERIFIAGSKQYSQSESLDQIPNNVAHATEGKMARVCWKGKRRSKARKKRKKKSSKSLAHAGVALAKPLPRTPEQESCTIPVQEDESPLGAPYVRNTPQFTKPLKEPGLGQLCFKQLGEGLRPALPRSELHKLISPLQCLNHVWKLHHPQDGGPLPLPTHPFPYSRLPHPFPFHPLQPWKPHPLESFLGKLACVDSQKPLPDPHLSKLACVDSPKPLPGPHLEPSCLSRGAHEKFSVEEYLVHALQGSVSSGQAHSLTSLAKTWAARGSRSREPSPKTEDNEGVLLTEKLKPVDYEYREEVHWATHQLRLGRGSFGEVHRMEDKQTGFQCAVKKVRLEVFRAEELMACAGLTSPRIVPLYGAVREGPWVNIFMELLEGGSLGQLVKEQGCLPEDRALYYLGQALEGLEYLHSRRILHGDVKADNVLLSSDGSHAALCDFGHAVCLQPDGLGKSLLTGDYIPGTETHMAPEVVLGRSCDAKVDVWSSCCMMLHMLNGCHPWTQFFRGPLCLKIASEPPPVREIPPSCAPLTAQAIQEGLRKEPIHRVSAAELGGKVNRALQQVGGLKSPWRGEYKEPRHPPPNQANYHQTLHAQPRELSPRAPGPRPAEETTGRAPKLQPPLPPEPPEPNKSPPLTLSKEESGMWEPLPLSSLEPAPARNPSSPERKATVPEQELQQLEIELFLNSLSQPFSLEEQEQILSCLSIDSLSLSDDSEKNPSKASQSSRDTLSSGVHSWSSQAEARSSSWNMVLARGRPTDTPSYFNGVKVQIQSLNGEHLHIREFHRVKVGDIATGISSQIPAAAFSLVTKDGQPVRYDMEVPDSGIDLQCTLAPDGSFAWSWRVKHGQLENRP

Row | Structure (SMILES) | IC50 [1] [nM] | IC50 [2] [nM]
1 | Nc1ncc2c(n1)-c1c([nH]c3ccc(C#Cc4cccnc4)cc13)CCC2 | 30000 | –
2 | N#Cc1ccc2ccn(-c3ccnc(N)n3)c2c1 | 63 | –
3 | Cc1cnc(N)nc1-c1c[nH]c2ccc(Cl)cc12 | 110 | –
4 | Cc1cnc(N)nc1-c1c(C)[nH]c2ccc(Cl)cc12 | 30000 | –
5 | Nc1nccc(-n2ccc3ccc(Br)cc32)n1 | 89 | –
6 | Nc1nccc(-c2c[nH]c3ccc(Cl)cc23)n1 | 150 | –
7 | CC(O)c1ccc(-c2ccc3[nH]c4c(c3c2)-c2nc(N)ncc2CCC4)s1 (stereo not drawn) | 15000 | –
8 | Nc1nccc(N2CCc3ccc(Br)cc32)n1 | 550 | –
9 | COc1ccc2[nH]cc(-c3ccnc(N)n3)c2c1 | 24000 | –
10 | Nc1nccc(-c2c[nH]c3ccc(F)cc23)n1 | 1800 | –
11 | Nc1nccc(-n2cnc3ccc(Cl)cc32)n1 | 310 | –
12 | N#Cc1ccc2[nH]cc(-c3ccnc(N)n3)c2c1 | 63 | –
13 | Nc1nccc(-n2ccc3ccc(Cl)cc32)n1 | 76 | –
14 | Nc1ncc2c(n1)-c1c([nH]c3ccc(Br)cc13)CCC2 | 100 | 4600
15 | Cn1cncc1C#Cc1ccc2[nH]c3c(c2c1)-c1nc(N)ncc1CCC3 | 30000 | –
16 | Nc1ncc2c(n1)-c1c([nH]c3ccc(Cl)cc13)CCC2 | 70 | –
17 | CC(O)c1ccc(-c2ccc3[nH]c4c(c3c2)-c2nc(N)ncc2CCC4)cc1 (stereo not drawn) | 24000 | –
18 | Nc1ncc2c(n1)-c1c([nH]c3ccc(Cl)cc13)CCCC2 | 21000 | –
19 | COCCOc1cnc(N)nc1-c1c[nH]c2ccc(C#CC(C)(C)O)cc12 | 40 | 20
20 | Nc1ncc2c(n1)-c1c[nH]c3ccc(Cl)c(c13)CC2 | 2600 | –
21 | Nc1ncc2c(n1)-c1c([nH]c3ccc(Cl)cc13)CC2 | 1200 | –

The next lines start with the values.

Row | IC50 [1] [nM] | IC50 [2] [nM] | Structure (SMILES)
22 | > 80000 | – | Cc1nc2c(C)cccn2c1-c1ccnc(N)n1
23 | 300 | – | Cc1[nH]c2ccc(Cl)cc2c1-c1ccnc(N)n1
24 | > 80000 | – | Cc1nc2ccccn2c1-c1ccnc(N)n1
25 | 4000 | – | Cc1nc2ccc(Cl)cc2n1-c1ccnc(N)n1
26 | 41000 | – | Nc1nccc(-c2c[nH]c3ccccc23)n1
27 | 600 | 16000 | Cc1nc2ccc(Cl)cn2c1-c1ccnc(N)n1
28 | 42000 | – | Cc1ccc2nc(C)c(-c3ccnc(N)n3)n2c1
29 | 190 | – | Nc1nccc(-c2cnc3ccc(Br)cn23)n1
30 | > 80000 | – | Cc1ccn2c(-c3ccnc(N)n3)c(C)nc2c1
